Ends that are not written are not given here.

One series is described as follows: physchem. In kind it is physicochemical. As to conditions: for half-life at 200 μg/ml: buffer. As for the experimental part: KSL was analyzed by RP-HPLC using a Prosphere C-18 analytical column (4.6×250 mm, Alltech, Deerfield, Ill.) with a Prosphere C-18 guard column (4.6×7.5 mm, Alltech, Deerfield, Ill.). A gradient elution was performed with mobile phase A (0.1% TFA in water) and mobile phase B (0.1% TFA in acetonitrile). KSL was eluted with a linear gradient from 80:20 to 70:30 (mobile phase A:B) for 8 min at a flow rate of 1.0 ml/min. Total run time was 16 min and the injection volume was 40 μl. Chromatograms were recorded by UV detection at 215 nm.
Test solutions of KSL were prepared using a stock peptide solution of 10 mg/ml in deionized water. The degradation of KSL peptide was investigated in sodium acetate (pH 4), sodium phosphate (pH 7.4) and sodium borate (pH 9) buffers at 0.1 M buffer concentration. Each buffer solution containing 200 μg/ml of KSL was incubated in a temperature-controlled oven at 25, 37 and 55° C., respectively. Samples were taken at pre-determined times and analyzed under HPLC conditions described above. The stability of KSL was studied at 37° C. in artificial saliva over a three day period. Artificial saliva was used in the in vitro release studies in an attempt to simulate actual conditions of use. The ingredients of the artificial saliva were as follows: sodium chloride, 0.844 g; potassium chloride, 1.200 g; calcium chloride dihydrate, 0.193 g; magnesium chloride hexahydrate, 0.111 g; potassium phosphate dibasic, 0.342 g; water to make to 1000 ml. The pH was adjusted with hydrochloric acid solution to pH 5.7±0.1 [26].

The procedure of series [1]:
The chewing gum formulations were prepared following a procedure described previously. The gum base was heated at a temperature between 50 and 60° C. for melting. When the gum base was of the proper fluid consistency, the KSL was added as a fine powder along with the other components. The temperature was kept constant while mixing the components with the gum base in a mortar. After mixing, the homogenous chewing gum mixture was extruded, cut into squares of approximate shape and size and hardened at room temperature overnight. The composition of the gum was as follows: 550 mg of gum base, 420 mg of sorbitol, 10 mg of mannitol, 10 mg of saccharin, and 10, 20 or 30 mg of KSL (total weight: approximately 1 g). In vitro release study of KSL from chewing gums was carried out using an in vitro chewing release apparatus consisting of two modules (AB FIA, Lund, Sweden) (FIG. 1). Each module consists of a thermostatted glass cell in which two vertically oriented pistons holding an upper and a lower chewing plate are mounted. The cells were filled with 40 ml of artificial saliva and the chewing gum was loaded onto the lower chewing surface. […] The released amount of KSL was determined by RP-HPLC.

Series [2] has as its system oral biofilms formed on saliva-coated HA disks by salivary bacteria. The series is described as follows: In vitro plaque assay, viable counts of oral biofilms on saliva-coated HA disks. The class given is cell-based, human salivary bacteria. The conditions noted are these: KSL 200 μg/ml. From the text:
In conjunction with the dual flow cell system, a modification of an in vitro plaque model of biofilm formation described by Guggenheim et al. (Guggenheim et al., 2001) was used to determine the effects of tested antimicrobials and other agents on developed oral biofilms (see Appendix I for details). HA disks (Clarkson, south Williamsport, Pa.) were employed as substrates for salivary bacteria to form biofilms.
To determine the inhibitory activity of KSL on developed oral biofilms, disks containing 45 h-old biofilms were transferred to wells containing aqueous KSL (200 μg/ml; 1 ml/well). Following 30 min exposure at 37° C., disks were rinsed with 3×1 ml of saline and transferred to sterile 15 ml polypropylene tubes containing 1 ml PBS. Biofilm cells adherent to surfaces (after treatment) were recovered by sonicating for 2 min at 5 watts with a Microson ultrasonic cell disrupter equipped with a cup horn (Misonix Inc., Farmingdale, N.Y.). Settings including the time interval used in the sonication were predetermined empirically to yield maximal recovery of adherent biofilm cells.
The effect of KSL on disrupted biofilms was assessed by recovering biofilm cells from HA disks (45 h-old biofilms) through sonication as described above. The detached biofilm cells (in sterile dH2O) were mixed with an equal volume of aqueous KSL to obtain a final peptide concentration of 200 μg/ml, and the reaction mixtures incubated at 37° C. for 30 min. The interactions of KSL and suspended biofilm cells were terminated by washing in PBS.
To determine the effect of the surface-active agent (benzalkonium chloride; Sigma, St. Louis, Mo.) in promoting the killing of intact biofilms by KSL, 66 h-old oral biofilms were treated with KSL (200 μg/ml), benzalkonium chloride (0.001%), or a combination of the two agents, followed by viable counts determinations and confocal laser scanning microscopy of treated samples.
Viable counts of biofilm cells derived from treated disks or disrupted biofilms were determined by spiral plating serially diluted samples onto blood agar plates. Distilled water or 0.12% aqueous chlorhexidine digluconate (Sigma) was used as the negative or positive control, respectively. The 45 h-old biofilms were exposed to chlorhexidine for 1 min, and to water for 30 min at 37° C.
In this assay, HA disks (Clarkson Chromatography Products, Inc., South Williamsport, Pa.) were used as surfaces on which plaque formation can occur. Before use, sterile HA disks were conditioned in the wells of a 24-well microtiter plate (Becton Dickinson, Franklin Lakes, N.J.) containing 50% sterile saliva by incubating at room temperature for a minimum of two hours on a rotating platform at 95 rpm. The saliva was removed and each well inoculated with isolated salivary bacteria at a bacterial cell concentration of 1.0×10^7 cells/ml in sterile 50% whole saliva. After two hours of incubation (with rotation) at 37° C. to allow the bacteria to adhere to surfaces, unattached bacteria were removed and replaced with supplemented saliva-based medium. The plates were incubated with rotation at 37° C. for 45 h (with medium replaced three times), or 66 h (with medium replaced five times) in a CO2 incubator prior to treatments, and the recovery of biofilm cells from treated or untreated disks.
In these studies, KSL or KSL-W was used at 200 μg/ml, whereas Bzl and CPC were used at 0.001% and 0.0025%, respectively. […]

Usually half-life stands for the time in which the quantity being followed falls by half. A high value points to slow loss. As for “KKVVFKVKFK-NH2 [KSL, Lys-Lys-Val-Val-Phe-Lys-Val-Lys-Phe-Lys-NH2]”, the half-life at 200 μg/ml in the series “physchem” (pH 4) was 165 days; in “physchem” (pH 7.4), 13.8 days; in the series “physchem” (pH 9), 4.7 days. The “Activation energy (Ea) of degradation” value in the series “physchem” (pH 4) turned out to be 6.7 kcal/mol. Further, the “stability of KSL during the gum manufacturing process (HPLC of released KSL)” value in series [1] is listed as “remains stable”. In addition, the “reduction of viability, disrupted biofilms, versus dH2O-treated control cells” value in series [2] (45 h-old biofilms disrupted by sonication, 30 min, 37° C.) turned out to be 1.8 log. The “effect on viability of intact biofilms compared to water treatment” value in series [2] (66 h-old oral biofilms, benzalkonium chloride 0.001%) is listed as “less effect on the viability”. Also, in series [2] (intact 45-h-old biofilms, 30 min, 37° C.), the “reduction of viable counts, intact biofilms” value was “small reduction of viable counts”.

Values taken from US8778889B2, “Antimicrobial decapeptide oral hygiene treatment” (The United States of America as represented by the …, priority 2003, dated 2014).
